What was measured:
[1] = test system: Collagen Induced Arthritis (CIA) mice; assay: Murine Collagen Induced Arthritis (CIA) model, paw edema; format: in vivo; details: i.p. daily injections
Experimental: Murine collagen-induced arthritis (CIA) is considered a useful model for studying human RA since the two diseases share numerous pathologic, immunological, and genetic features. The CIA model in mice results in a symmetric polyarthritis in which bone and cartilage erosion typically occur, 2-4 weeks after immunization with […] type II collagen on complete Freud's adjuvant (CFA).
Male DBA/l mice (8-10 weeks old) were subject to an intradermal injection at the base of the tail with 200 μg type II collagen purified from bovine articular cartilage emulsified in CFA. The mice received a booster injection of 200 μg type II collagen emulsified in CFA three weeks after the first dose.
The mice were checked daily and each animal with edema in one or more limbs was randomly assigned to one of several groups for further treatment. The thickness of each affected hind paw was measured with microcalipers. The results are expressed as a direct measure of paw width in millimeters.
Each mouse was injected intraperitoneally on the day following disease onset (day 1) with 100 ug anti-FGFR3-ScFv or anti-FGFR3 Fab′ or 20 mg/kg of a FGFR3 specific tyrosine kinase (TK) inhibitor (SU5402, Calbiochem, La Jolla, Calif.), followed by daily injections with 300 μg anti-FGFR3 ScFv or anti-FGFR3 Fab′ or with 20 mg/kg SU5402.

[2] = test system: cutaneous delayed type hypersensitivity reactions in mice; assay: Delayed type hypersensitivity (DTH) assay, oxazolone, ear thickness; format: in vivo; details: treated mice, oxazolone challenge, measured after 24 hours
Experimental: The mouse model for cutaneous delayed type hypersensitivity reactions was used to investigate the effects of FGFR3 inhibitors on induced skin inflammation. Oxazolone solutions (2% and 0.5%) were prepared by dissolving 200 and 50 mg, respectively, of oxazolone in 8 ml of acetone and 2 ml of olive oil. Mice were challenged with oxazolone by topical application onto the abdomen of each mouse (100 μl of 2% oxazolone) followed by 10 μl of 0.5% oxazolone on the right ear after 6 days. Differences between right and left ear thickness, indicating DTH development, were measured after 24 hours using a microcaliper.

Cc1c[nH]c(/C=C2\C(=O)Nc3ccccc32)c1CCC(=O)O [SU5402]
reduction in paw edema [1]: significant reduction | DTH reaction: induction of edema (ear thickness difference) [2]: no induction of edema

Source: patent US20080044419A1, “Treatment of T Cell Mediated Diseases by Inhibition of Fgfr3” (Fibron Ltd., priority 2003, published 2008)
